Reference: patent US20060052453A1, “Agent for treating Parkinson's disease comprising astrocyte function-improving agent as active ingredient” (priority 2000, published 2006)

Key:
[1] = test system: Experimental Model of Parkinson's Disease Induced by Administration of MPTP; assay: Experimental model of Parkinson's disease induced by administration of MPTP; striatal dopamine and DOPAC content by HPLC; assay type: in vivo, mice; details: for DOPAC content / Dopamine content: average ± standard deviation
Description: Improvement Effect of the Compound of the Present Invention in Experimental Model of Parkinson's Disease Induced by Administration of MPTP Male C57BL/6 mice (body weight: 20 to 28 g) were divided into groups each having 6 to 12 animals. Without anesthetizing, MPTP (10 mg/kg; 1-methyl-4-phenyl-1,2,3,6-tetrahydropyridine hydrochloride) was intraperitoneally administered to the mice 4 times at intervals of 1 hour (Brain Res., 824: 224-231 (1999)). To the models thus prepared, Compound A of the present invention ((R)-2-propyloctanoic acid) was administered after 1, 6, 24 and 48 hours. Three days after the final administration, striata of the mice were collected. After weighing, the striata were immediately frozen and stored. Then, dopamine content and DOPAC (3,4-dihydroxypyenylacetate) content were measured by HPLC in a conventional manner and evaluated. […] Dunnett's multiple comparison test (both sides) was performed on the basis of the data of the group with the administration of MPTP alone. The values in Table 1 are shown by the average±the standard deviation.

dogs = assay: Single intravenous dose toxicity in dogs; assay type: in vivo; details: single dose of 100 mg/kg
Description: It has been confirmed that the compounds of the present invention represented by formula (I) have such low toxicity as being sufficiently safe in using as drugs.

[2] = Compound A alone 30 mg/kg, no MPTP, male C57BL/6 mice, striatum
[3] = MPTP (10 mg/kg i.p. x4) + compound A 3 mg/kg at 1, 6, 24 and 48 hours, striatum 3 days after final administration
[4] = MPTP (10 mg/kg i.p. x4) + compound A 10 mg/kg at 1, 6, 24 and 48 hours, striatum 3 days after final administration
[5] = MPTP (10 mg/kg i.p. x4) + compound A 30 mg/kg at 1, 6, 24 and 48 hours, striatum 3 days after final administration

CCCCCC[C@@H](CCC)C(=O)O [Compound A, (R)-2-propyloctanoic acid]
DOPAC content [1, 2]: 2.97 ± 0.49 µg/g
Dopamine content [1, 2]: 12.17 ± 1.41 µg/g
DOPAC content [1, 3]: 1.30 ± 0.31 µg/g
Dopamine content [1, 3]: 4.13 ± 1.48 µg/g
DOPAC content [1, 4]: 2.07 ± 0.77 µg/g
Dopamine content [1, 4]: 5.45 ± 2.00 µg/g
DOPAC content [1, 5]: 2.26 ± 0.52 µg/g
Dopamine content [1, 5]: 6.75 ± 2.72 µg/g
Dopamine and DOPAC content compared with the group of MPTP alone ([1]; MPTP + compound groups vs MPTP alone, Dunnett's multiple comparison test): significantly increased dopamine and DOPAC content depending on the dose
Adverse effect when used alone ([1]; compound alone in normal animals, data compared with control group): no adverse effect
Death (dogs): no case of death was observed
